Assay: Stability test: remaining NBPT content on treated granulated urea after storage (HPLC)
Assay type: physicochemical
Details: storage at 40° C., 50% humidity, up to 90 days
Description: The sample was prepared by mixing 6.00 g of TMBPA and 8.11 g of NBPT (98% purity) in 15.89 g of Augeo® SL 191 at a temperature of 25° C. The concentration of TMBPA was 20% and the concentration of NBPT was 26.5%. Then, the solution prepared was sprayed onto 50 g of granulated urea at a dosage of 0.3% of urea weight.
For stability tests, the treated granulated urea was kept at 40° C. and an atmospheric humidity of 50% for 30 days, 60 days and 90 days, respectively. The remaining NBPT content (expressed as percentages based on initial NBPT content) was measured by using HPLC analysis according to the standard procedure.

For `CCCCNP(N)(N)=S` [NBPT, N-(n-butyl)thiophosphoric acid triamide], the “stability of NBPT after application to the urea fertilizer (in words)” value was “poor stability”.

From patent publication US11306036B2, “Composition containing a urease inhibitor” (RHODIA OPERATIONS, priority 2016, dated 2022)
